Each compound was assayed against T1, human dopamine D4 receptor (Homo sapiens, UniProt P21917) (assay: Binding affinity for dopamine D4 receptor ([3H]-spiperone displacement, membrane fraction)). Conditions: cloned human dopamine D4 receptor; [3H]-spiperone 0.2nM; 37°C for 30 min; Ki from IC50 by the equation of Cheng and Prusoff.
T1 construct: expressed in transfected cells
T1 sequence (P21917 1-419): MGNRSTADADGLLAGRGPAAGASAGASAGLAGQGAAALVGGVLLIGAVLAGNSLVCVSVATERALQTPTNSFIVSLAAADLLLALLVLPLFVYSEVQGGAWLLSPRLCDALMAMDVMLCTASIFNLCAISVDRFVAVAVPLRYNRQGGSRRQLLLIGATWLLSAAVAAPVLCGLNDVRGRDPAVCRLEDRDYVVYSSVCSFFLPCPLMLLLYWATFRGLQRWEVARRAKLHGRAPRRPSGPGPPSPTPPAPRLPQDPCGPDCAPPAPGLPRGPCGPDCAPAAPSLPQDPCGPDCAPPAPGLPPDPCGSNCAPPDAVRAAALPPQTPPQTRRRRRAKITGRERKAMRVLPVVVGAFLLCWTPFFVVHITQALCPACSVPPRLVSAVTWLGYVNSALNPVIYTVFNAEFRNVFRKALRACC
Procedure: Cells that express cloned human dopamine D4 receptor were harvested in an assay buffer (50mM Tris-HCl, pH7.4, containg 120 mM NaCl, 5 mM KCl, 1mM MgCl2, and 1 mM CaCl2) and homogenized in a potter type homogenizer. The membrane fraction was centrifuged at 39000 g for 20 min at 4°C. The pellet was suspended in 1 ml of the assay buffer per cells from dish having a diameter of 10 cm and was again homogenated. The aliquots (100µl) was added to the buffer containing [^3H]-spiperone of a final concentration of 0.2nM and a test compound to the final assay volume of 300µl, which was then incubated at 37°C for 30 min. The incubation was stopped by rapid filtration on a GF/B filter. Washing with 5 ml of ice-cold 50 mM Tris-HCl (pH 7.4) was then carried out. The radioactivity was measured with a packered liquid scintillation counter. The amount of nonspecific binding was determined in the presence of 1 µM spiperone, and the amount of the specific binding was then determined by subtracting the amount of the nonspecific binding from the total binding. For each compound, IC50 was determined by a regression analysis using a nonlinear least square method. The Ki value was then calculated by the equation of Cheng and Prusoff.
For `O=C1CCc2ccccc2N1CCCC1CCN(Cc2ccc(F)c(F)c2)CC1` [Example 30, 1-[3-[1-(3,4-Difuorobenzyl)-4-piperidinyl]-propyl]-3,4-dihydro-2 (1H)-quinolinone], the Ki was 5.7 nM. `O=C1CSc2ccccc2N1CCCC1CCN(Cc2ccc(Cl)cc2)CC1` [Example 33] was tested, and the Ki was 1 nM. For `O=c1ccc2ccccc2n1CCCN1CCN(CC2CCCCC2)CC1` [Example 1, 1-[3-(4-Cyclohexanemethyl-1-piperazinyl)-propyl]-2(1H)-quinolinone], the Ki was 7.6 nM. `Cc1ccc(CN2CCC(CCCN3C(=O)CCc4ccccc43)CC2)cc1` [Example 55, 1-[3-[1-(4-Methylbenzyl)-4-piperidinyl]-propyl]-3,4-dihydro-2 (1H)-quinolinone] showed a Ki of 1 nM. Compound `O=C1CSc2ccccc2N1CCCC1CCN(Cc2ccc(F)cc2)CC1` [Example 32] has a Ki of 7.6 nM. Work on `O=c1ccc2ccccc2n1CCCN1CCN(Cc2ccc(F)c(F)c2)CC1` [Example 3, 1-[3-[4-(3,4-Difluorobenzyl)-1-piperazinyl]-propyl]-2(1H)-quinolinone] yielded a Ki of 18 nM. For `O=C1CCc2ccccc2N1CCCC1CCN(Cc2ccc(F)cc2F)CC1` [Example 39, 1-[3-[1-(2,4-Difluorobenzyl)-4-piperidinyl]propyl]-3,4-dihydro-2(1H)-quinolinone], the Ki was 5.9 nM. For `Cc1ccccc1CN1CCC(CCCN2C(=O)CCc3ccccc32)CC1` [Example 44, 1-[3-[1-(2-Methylbenzyl)-4-piperidinyl]-propyl]-3,4-dihydro-2(1H)-quinolinone], the Ki was 2.8 nM. `Cc1cccc(CN2CCC(CCCN3C(=O)CCc4ccccc43)CC2)c1` [Example 54, 1-[3-[1-(3-Methylbenzyl)-4-piperidinyl]-propyl]-3,4-dihydro-2(1H)-quinolinone] was tested, and the Ki was 7.5 nM. In the case of `O=C1COc2ccccc2N1CCCC1CCN(Cc2ccc(Cl)cc2)CC1` [Example 29, 1-[3-[1-(4-Chlorobenzyl)-4-piperidinyl]-propyl]-4H-benzo[1,4]oxazin-3-one], the Ki is reported as 5.1 nM. Compound `O=C1COc2ccccc2N1CCCC1CCN(Cc2ccc(F)cc2)CC1` [Example 27, 1-[3-[1-(4-Fluorobenzyl)-4-piperidinyl]-propyl]-4H-benzo[1,4]oxazin-3-one] has a Ki of 29 nM. Work on `O=c1ccc2ccccc2n1CCCC1CCN(Cc2ccc(F)c(F)c2)CC1` [Example 24, 1-[3-[1-(3,4-Difluorobenzyl)-4-piperidinyl]-propyl]-2 (1H)-quinolinone] yielded a Ki of 6 nM. For `O=C1CCc2ccccc2N1CCCC1CCN(Cc2ccc(Cl)cc2)CC1` [Example 41, 1-[3-[1-(4-Chlorobenzyl)-4-piperidinyl]-propyl]-3,4-dihydro-2 (1H)-quinolinone], the Ki was 1.1 nM. `O=c1ccc2ccccc2n1CCCN1CCC(Oc2ccc(Cl)cc2)CC1` [Example 20, 1-[3-[4-(4-Chlorophenoxy)-1-piperidinyl]-propyl]-2(1H)-quinolinone] was tested, and the Ki was 2 nM. In the case of `O=C1CCc2ccccc2N1CCN1CCN(CC2CCCCC2)CC1` [Example 10 (A), 1-[2-(4-Cyclohexanemethyl-1-piperazinyl)-ethyl]-3,4-dihydro-2(1H)-quinolinone], the Ki is reported as 34 nM.
